Measurements reported in ChEMBL document CHEMBL3352388, “Active compounds from a diverse library of triazolothiadiazole and triazolothiadiazine scaffolds: synthesis, crystal structure determination, cytotoxicity, cholinesterase inhibitory activity, and binding mode analysis” (Bioorg Med Chem, 2014).

What was measured:
[1] = tested on: Vero; assay: Cytotoxicity against African green monkey Vero cells by sulforhodamine B assay; type: cell-based; set-up: concentration or dose not given beside the values; settings: chlorocebus sabaeus
[2] = molecular target: T1, Cholinesterase (Homo sapiens, UniProt P06276); assay: Inhibition of human BChE by Ellman's method
[3] = molecular target: Acetylcholinesterase (Electrophorus electricus) (UniProt O42275); assay: Inhibition of electric eel AChE at 100 uM by Ellman's method
[4] = tested on: NCI-H157; assay: Cytotoxicity against human NCI-H157 cells by sulforhodamine B assay; type: functional, cell-based
[5] = molecular target: Acetylcholinesterase (Electrophorus electricus, UniProt O42275); assay: Inhibition of electric eel AChE by Ellman's method
[6] = molecular target: T1, Cholinesterase; assay: Ratio of neostigmine IC50 to compound IC50 for human BChE

T1 sequence (P06276 whole entry): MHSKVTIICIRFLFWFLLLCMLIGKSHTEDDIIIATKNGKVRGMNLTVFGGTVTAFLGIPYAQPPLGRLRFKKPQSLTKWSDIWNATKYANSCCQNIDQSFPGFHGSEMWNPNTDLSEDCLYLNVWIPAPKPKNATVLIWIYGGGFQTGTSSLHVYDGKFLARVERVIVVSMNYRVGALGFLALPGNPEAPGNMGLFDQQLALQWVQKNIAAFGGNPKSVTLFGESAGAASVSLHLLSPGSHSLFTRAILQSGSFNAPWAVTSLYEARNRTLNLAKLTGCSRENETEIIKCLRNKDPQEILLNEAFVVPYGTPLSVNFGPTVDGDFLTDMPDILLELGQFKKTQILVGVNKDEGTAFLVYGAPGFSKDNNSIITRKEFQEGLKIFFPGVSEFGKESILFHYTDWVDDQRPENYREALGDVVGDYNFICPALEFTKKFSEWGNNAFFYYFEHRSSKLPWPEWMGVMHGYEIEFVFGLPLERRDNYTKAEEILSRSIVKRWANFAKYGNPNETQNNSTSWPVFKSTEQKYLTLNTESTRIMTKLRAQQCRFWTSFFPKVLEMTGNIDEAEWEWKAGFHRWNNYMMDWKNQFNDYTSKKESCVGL
Chain of Acetylcholinesterase (O42275 whole entry): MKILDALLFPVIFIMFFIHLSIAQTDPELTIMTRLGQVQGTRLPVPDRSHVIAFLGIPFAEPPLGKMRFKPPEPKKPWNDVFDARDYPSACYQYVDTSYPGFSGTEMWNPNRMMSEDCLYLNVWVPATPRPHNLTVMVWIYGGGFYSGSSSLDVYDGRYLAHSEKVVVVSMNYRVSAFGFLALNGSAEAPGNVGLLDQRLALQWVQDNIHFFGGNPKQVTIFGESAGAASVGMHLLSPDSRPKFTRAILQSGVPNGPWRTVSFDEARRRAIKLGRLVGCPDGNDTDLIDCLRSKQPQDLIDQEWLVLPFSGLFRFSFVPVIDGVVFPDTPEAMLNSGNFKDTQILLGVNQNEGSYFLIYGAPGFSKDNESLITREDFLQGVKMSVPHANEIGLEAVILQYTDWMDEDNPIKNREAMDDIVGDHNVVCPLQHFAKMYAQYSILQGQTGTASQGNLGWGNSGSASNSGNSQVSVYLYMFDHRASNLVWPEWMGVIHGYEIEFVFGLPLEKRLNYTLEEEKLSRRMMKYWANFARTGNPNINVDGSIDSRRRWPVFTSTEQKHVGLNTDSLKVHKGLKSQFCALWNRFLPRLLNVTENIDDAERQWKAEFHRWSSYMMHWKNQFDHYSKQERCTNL
Chain of Acetylcholinesterase (Electrophorus electricus) (O42275 24-633 limits assumed): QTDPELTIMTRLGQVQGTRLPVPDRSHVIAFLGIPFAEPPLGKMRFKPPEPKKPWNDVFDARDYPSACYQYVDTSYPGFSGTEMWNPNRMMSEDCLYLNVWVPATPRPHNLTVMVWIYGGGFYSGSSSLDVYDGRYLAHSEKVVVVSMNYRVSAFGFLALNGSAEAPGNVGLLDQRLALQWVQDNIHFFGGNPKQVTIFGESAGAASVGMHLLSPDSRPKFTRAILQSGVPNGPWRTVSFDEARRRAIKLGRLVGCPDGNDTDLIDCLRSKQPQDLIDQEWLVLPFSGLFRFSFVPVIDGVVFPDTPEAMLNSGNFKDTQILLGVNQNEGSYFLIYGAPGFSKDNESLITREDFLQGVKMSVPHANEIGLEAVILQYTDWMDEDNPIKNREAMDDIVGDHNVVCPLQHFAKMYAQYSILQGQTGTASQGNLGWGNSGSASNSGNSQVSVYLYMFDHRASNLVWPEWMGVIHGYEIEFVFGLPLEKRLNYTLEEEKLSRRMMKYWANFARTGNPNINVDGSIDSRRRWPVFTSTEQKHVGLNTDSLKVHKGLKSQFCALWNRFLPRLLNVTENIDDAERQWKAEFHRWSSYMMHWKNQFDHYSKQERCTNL

SMILES | Activity [1] | IC50 [2] | inhibition [3] | IC50 [4] | IC50 [5] | Ratio IC50 [6]
c1cncc(-c2nnc3n2N=C(c2cccc4ccccc24)CS3)c1 | 23.1% | 15.9 µM | 17.2% | 5370 nM | – | –
c1cncc(-c2nnc3sc(-c4ccco4)nn23)c1 | 23.9% | 6.03 µM | – | 3160 nM | 21.2 µM | –
CN(C)C(=O)Oc1cccc([N+](C)(C)C)c1 [NEOSTIGMINE] | – | 16.3 µM | – | – | – | –
Clc1ccc(C2=Nn3c(nnc3-c3cccnc3)SC2)cc1 | 21.1% | 9.82 µM | – | 3940 nM | 15.1 µM | –
Fc1ccc(C2=Nn3c(nnc3-c3cccnc3)SC2)cc1 | 18.4% | 4.92 µM | 40.8% | 1850 nM | – | –
O=[N+]([O-])c1ccc(C2=Nn3c(nnc3-c3cccnc3)SC2)cc1 | 10.7% | 1.09 µM | – | 1420 nM | 18.3 µM | 15
c1ccc(-c2ccc(C3=Nn4c(nnc4-c4cccnc4)SC3)cc2)cc1 | 26.1% | 18.9 µM | – | 4320 nM | 39.7 µM | –
Fc1cc(Cl)ccc1-c1nn2c(-c3cccnc3)nnc2s1 | 26.7% | 37.4 µM | 36.2% | 1870 nM | – | –
Fc1ccc(OCc2nn3c(-c4cccnc4)nnc3s2)cc1 | 17.4% | – | – | 1940 nM | – | –
Fc1ccc(Cc2nn3c(-c4cccnc4)nnc3s2)cc1 | 21.3% | 79.9 µM | 32.3% | 1650 nM | – | –
Oc1ccc(OCc2nn3c(-c4cccnc4)nnc3s2)cc1 | 20.4% | 0.585 µM | – | 3010 nM | 3.09 µM | –
COc1ccc(OCc2nn3c(-c4cccnc4)nnc3s2)cc1 | 24.1% | 55.8 µM | 39.5% | 1950 nM | – | –
Cc1occc1-c1nn2c(-c3cccnc3)nnc2s1 | 24.3% | 58.6 µM | – | 2930 nM | 37.7 µM | –
Fc1ccc(-c2nn3c(-c4cccnc4)nnc3s2)cc1Cl | 23.6% | 10.3 µM | 48.4% | 1080 nM | – | –
Clc1ccc(C2=Nn3c(nnc3-c3cccnc3)SC2)cc1Cl | 22.2% | 64.8 µM | – | 960 nM | 38.5 µM | –
Oc1ccccc1OCc1nn2c(-c3cccnc3)nnc2s1 | 22.7% | 3.02 µM | – | 3670 nM | 35.5 µM | –
COc1ccc(C2=Nn3c(nnc3-c3cccnc3)SC2)cc1 | 27.8% | 0.781 µM | 15.2% | 1670 nM | – | 23
Cc1ccc(C2=Nn3c(nnc3-c3cccnc3)SC2)cc1 | 27.3% | 25.4 µM | 28.7% | 3870 nM | – | –
Cc1ccc(OCc2nn3c(-c4cccnc4)nnc3s2)cc1 | 23.8% | 4.76 µM | – | 2980 nM | 11.3 µM | –
c1cncc(-c2nnc3sc(-c4ccoc4)nn23)c1 | 28.4% | – | – | 3410 nM | – | –
CCOc1ccc(Cc2nn3c(-c4cccnc4)nnc3s2)cc1 | 22.5% | 70.7 µM | 38.4% | 2920 nM | – | –
c1cncc(-c2nnc3sc(-c4ccc[nH]4)nn23)c1 | 19.2% | 13.7 µM | – | 5140 nM | 13.7 µM | –
CC[C@]1(O)C[C@H]2CN(CCc3c([nH]c4ccccc34)[C@@](C(=O)OC)(c3cc4c(cc3OC)N(C=O)[C@H]3[C@@](O)(C(=O)OC)[C@H](OC(C)=O)[C@]5(CC)C=CCN6CC[C@]43[C@@H]65)C2)C1 [VINCRISTINE] | 16.81% | – | – | 1030 nM | – | –
Cc1ccccc1OCc1nn2c(-c3cccnc3)nnc2s1 | 20.9% | – | – | 3290 nM | – | –
